Among the data in patent US20160200734A1, “CARBOXYLIC ACID COMPOUNDS IN TREATMENT OF DIABETES MELLITUS” (FUJIAN HAIXI PHARMACEUTICALS CO., LTD., priority 2013, published 2016) are EC50 values, retold here.

pEC50: −log10 of the molar value.

The target of the assay is T1, GPR40 (Homo sapiens, UniProt O14842).
T1 construct: expressed in transfected cells
T1 sequence (O14842 whole entry, species assumed): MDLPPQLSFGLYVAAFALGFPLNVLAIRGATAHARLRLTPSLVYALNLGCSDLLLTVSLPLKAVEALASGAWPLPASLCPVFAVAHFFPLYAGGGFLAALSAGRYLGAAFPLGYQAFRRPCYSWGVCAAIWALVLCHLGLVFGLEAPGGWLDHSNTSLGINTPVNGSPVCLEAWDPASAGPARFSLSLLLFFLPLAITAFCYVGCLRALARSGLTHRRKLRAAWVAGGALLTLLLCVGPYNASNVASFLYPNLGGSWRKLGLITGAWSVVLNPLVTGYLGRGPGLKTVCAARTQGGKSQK
The assay is described as follows: GPR40 Activation Assay (Wash Free Fluo-8 Calcium Assay). In kind it is cell-based. Conditions: HEK293 cells stably expressing GPR40; fluorescence intensity Ex=494 nm, Em=516 nm. Here is the method:
This test procedure substantially carried out in accordance with the HDB company's Wash Free Fluo-8 Calcium Assay Kits. HEK293 cells stably expressing GPR40 were selected in a media containing Neomycin/G418. The cells were plated at a concentration of 30 uL 15,000 cells per well in black 384-well clear bottom tissue culture treated plates. The cells were incubated for 24 h in a incubator with 5% CO2.
According to Wash Free Fluo-8 Calcium Assay Kits operating instruction, one component A was dissolved in 210 uL DMSO, one component B was dissolved in 2.4 mL component C. After a 200 mM probenecid solution was prepared, 40 μL component A, 400 μL component B, 200 μL 200 mM probenecid and […] component C were mixed to a 20 mL test solution.
After removal of medium from the black 384-well dear bottom tissue culture treated plates by centrifuge, the test solution was added at 30 uL/well and the plates were incubated for 60 mins at 37° C. All test compounds were diluted to appropriate concentrations in HBSS buffer. Compounds were added to the cells and the wells were read fluorescence intensity at Ex=494 nm, Em=516 nm and readings were taken for 2 mins with an interval of 1 s. The compounds dose-dependent curve and EC50 were obtained by the Graphpad Prism4 software.
`Cc1cc(OCCCS(C)(=O)=O)cc(C)c1-c1cccc2c1CCC2Oc1ccc2c(c1)SC[C@H]2CC(=O)O` (stereo partly drawn) [Example 51, 2-((3S)-6-((4-(2,6-dimethyl-4-(3-(methylsulfonyl)propoxy)phenyl)-2,3-dihydro-1H-inden-1-yl)oxy)-2,3-dihydrobenzo[b]thiophen-3-yl)acetic acid]: the pEC50 was 6.06.
Then `CSCCCOc1cc(C)c(-c2cccc3c2CCC3Oc2ccc3c(c2)SC[C@H]3CC(=O)O)c(C)c1` (stereo partly drawn) [Example 52, 2-((3S)-6-((4-(2,6-dimethyl-4-(3-(metylthio)porpoxy)phenyl)-2,3-dihydro-1H-inden-1-yl)oxy)-2,3-dihydrobenzo[b]thiophen-3-yl)acetic acid], with 5.90; and `COCCCOc1cc(C)c(-c2cccc3c2CCC3Oc2ccc3c(c2)SC[C@H]3CC(=O)O)c(C)c1` (stereo partly drawn) [Example 53, 2-((3S)-6-((4-(4-(3-methoxypropoxy)-2,6-dlmethylphenyl)-2,3-dihydro-1H-inden-1-yl)oxy)-2,3-dihydrobenzo[b]thiophen-3-yl)acetic acid], with 6.00.

The term pEC50 denotes the negative decadic logarithm of the EC50, by convention in mol/L.
